Source: patent US20250152577A1, “Pharmaceutical Composition of Ethidium Bromide and Use in Treating Cancer” (RUIJIN HOSPITAL, SHANGHAI JIAOTONG UNIVERSITY SCHOOL OF …, priority 2022, published 2025)

Key:
LO2 = test: Median lethal dosage (IC50) against normal cell lines; assay type: cell-based; conditions: Homo sapiens, L02; LO2 normal cells
[1] = Toxicity of ethidium bromide: routine blood, liver and kidney functions; assay type: in vivo, nude mice; conditions: after 4 weeks of intravenous administration
Source text: Finally, we also conducted a preliminary study on the toxicity of ethidium bromide by collecting whole blood and serum from the control and the dosing groups (administered intravenously for about 1 month) and tested their routine blood, and liver and kidney functions, respectively.

[2] = test system: colorectal cancer cells RKO; test: Mitochondrial function by Seahorse; assay type: cell-based, human; conditions: Seahorse after 6 hours; concentration-dependent
Experimental: (§1) To further verify the effect of ethidium bromide on mitochondrial function, various cell lines were treated with ethidium bromide and mitochondrial function was tested by using Seahorse after 6 hours.

[3] = test system: pancreatic cancer cells Panel; test: Mitochondrial function by Seahorse; assay type: cell-based, human; conditions: Seahorse after 6 hours; concentration-dependent
Experimental: as §1

MDA-231 Breast cancer = test: Median lethal dosage (IC50) against tumor cell lines; assay type: cell-based; conditions: Homo sapiens, MDA-MB-231; MDA-231 breast cancer tumor cells
HepG2 Liver cancer = test: as above; assay type: cell-based; conditions: Homo sapiens; HepG2 liver cancer tumor cells
mouse melanoma cells B16 = test: Subcutaneous B16 melanoma in C57 mice, intraperitoneal administration; assay type: in vivo; conditions: intraperitoneal 10 mg/Kg
Experimental: In order to further test whether ethidium bromide still has strong anti-tumor activity against solid tumors in vivo, C57 mice were first injected subcutaneously with 2×10^6 mouse melanoma cells B16, and the administration was initiated after about 10 days when the subcutaneous tumor volume of the mice reached about 30 mm^3. We first treated the mice by traditional intraperitoneal administration (10 mg/Kg). […] So after 3 days, we switched to injecting every other day. […] Although the tumors of the mice in the dosing group were slightly smaller than those in the control group, the tumor suppression effect was not obvious (FIG. 18C).

normal cell line GES1 = test: Mitochondrial function by Seahorse; assay type: cell-based; conditions: Seahorse after 6 hours
Experimental: as §1

[4] = test system: AOM+DSS-induced colorectal tumor; test: AOM+DSS-induced spontaneous colorectal cancer mouse model; assay type: in vivo, mice
Experimental: The classical intraperitoneal injection of AOM and the spontaneous colorectal cancer formation by three rounds of DSS were utilized to construct a tumor mouse model. Mice were treated with ethidium bromide (500 mg/L dissolved in drinking water) one week after completion of the construction. […] Mice were sacrificed and their colorectum was taken for photographic observation and fixed staining.
To further verify the above results, we then expanded the sample size to about 10-16 mice per group and still used the above AOM+DSS protocol to induce spontaneous colorectal cancer formation in mice. […] Meanwhile, since it has been reported that zalcitabine (ddC) can effectively impair the function of mitochondria (mainly the replication of mtDNA, similar to ethidium bromide), we added the experimental group of zalcitabine (33 mg/Kg) as a control.
In addition, in order to investigate in what way ethidium bromide clears tumors in mice, we also tested cell proliferation (FIGS. 8A and B) and apoptosis (FIG. 8C-F) in tumor tissues and normal tissues surrounding the tumors in different treatment groups. Among them, cell proliferation was detected by immunohistochemistry of Ki67-positive cells, and apoptosis was detected by immunofluorescence staining of cleaved Caspase3.
To further verify whether ethidium bromide is still effective against already existing larger tumors (advanced colorectal cancer), we set aside a group of control mice (started administration 5 weeks after the end of induction, equivalent to the control group of mice described above) to administer them by gavage (20 mg/Kg per day).
We investigated the mechanism of ethidium bromide-induced apoptosis in tumor cells. First, tumor tissues treated with ethidium bromide (mice shown in FIGS. 7 and 8, treated for 4 weeks at 20 mg/Kg per day) were subjected to SDS-Loading buffer boiling lysis and tested for associated signaling pathways by Western blotting.

[5] = cited from earlier work
MEF = test: Median lethal dosage (IC50) against normal cell lines; assay type: cell-based; conditions: Mus musculus; MEF normal cells
[6] = test system: colorectal cancer cells RKO; test: Subcutaneous RKO solid tumor in nude mice, gavage administration; assay type: in vivo; conditions: gavage 20 mg/Kg
Experimental: We also tested the anti-tumor activity of ethidium bromide against subcutaneous solid tumors. 2×10^6 colorectal cancer cells RKO were injected subcutaneously. About 1 week later, when solid tumors grew subcutaneously in nude mice, gavage administration (20 mg/Kg) was started. The size of the tumors was measured twice a week.

normal cells = test: Median lethal dosage, summary over normal cells; assay type: cell-based; conditions: mostly, normal cells of Table 1; read-out: median lethal dosages against normal cells
[7] = test system: colorectal cancer cells RKO; test: Intraperitoneal RKO in nude mice, intraperitoneal administration; assay type: in vivo; conditions: intraperitoneal 10 mg/Kg once daily until day 5
Experimental: In addition, we also tested for nude mice utilizing intraperitoneal administration, where 2×10^6 colorectal cancer cells, RKO, were first injected intraperitoneally in nude mice, and about 3 days later, we treated the nude mice using intraperitoneal administration (10 mg/Kg).

tumor cells = test: Median lethal dosage, summary over tumor cells; assay type: cell-based; conditions: vast majority of the tumor cells of Table 1; read-out: median lethal dosages against tumor cells
[8] = test system: pancreatic cancer cells Panel; test: Ectopic lung metastasis after intravenous injection of pancreatic cancer cells in nude mice; assay type: in vivo; conditions: intravenous 5 mg/Kg per day, start about 3 weeks after cell injection, 4 weeks
Experimental: In addition, to further investigate the effect of ethidium bromide on ectopic tissue metastatic tumors, we injected 2×10^6 pancreatic cancer cells Panel intravenously into nude mice. After ectopic tissue metastasis, tumors formed primarily in the lungs. After approximately 3 weeks, intravenous administration of 5 mg/Kg ethidium bromide per day was started after the tumor had already grown in the lung tissue (FIG. 15A). The mice were sacrificed after 4 weeks of administration and the lungs were removed for test.

RKO Colorectal cancer = test: Median lethal dosage (IC50) against tumor cell lines; assay type: cell-based; conditions: Homo sapiens; RKO colorectal cancer tumor cells
[9] = gavage 20 mg/Kg once daily, one month

CC[n+]1c(-c2ccccc2)c2cc(N)ccc2c2ccc(N)cc21 [ethidium bromide, Ethidium bromide]
IC50 (LO2): 50.7 µM
liver or kidney function vs control ([1]; serum): no significant difference in liver or kidney function
blood routine data (hemoglobin, platelets, leukocytes) ([1]; whole blood): very normal
oxygen consumption, glycolysis level, glycolysis rate [2]: significantly reduced
oxygen consumption, glycolysis level, glycolysis rate [3]: significantly reduced
IC50 (MDA-231 Breast cancer): 5.4 µM
IC50 (HepG2 Liver cancer): 8.12 µM
tumor suppression effect (mouse melanoma cells B16): not obvious
body weight (mouse melanoma cells B16; after 3 days of continuous injection): lose weight significantly
survival of mice by the end of the experiment (mouse melanoma cells B16; daily 3 days then every other day): only 1 of the 19 mice survived
oxygen consumption, glycolysis level, glycolysis rate (normal cell line GES1): decreased only at higher concentrations such as 5 μM
colorectal tumor mass ([4]; 500 mg/L in drinking water, start one week after model construction, 2 months): almost complete disappearance of the tumor mass
cleaved Caspase3, phosphorylation of Erk, LC3 level in tumor tissues (Western blotting) ([4]; 4 weeks at 20 mg/Kg per day): significant increase in cleaved Caspase3
body weight [4, 9]: little changed
mice with complete disappearance of spontaneous colorectal tumors [4, 9]: more than 80%
mtDNA copy number of colorectal tumors [4, 9]: did not alter the mitochondrial mtDNA copy number
size of the spleen, length of colorectum, weight of tissue organs vs control [4, 9]: healthier
mice achieving complete tumor clearance ([4]; larger (advanced) tumors, start 5 weeks after end of induction, gavage 20 mg/Kg per day, 1 month): more than 40%
Caspase3-positive tumor cells (apoptotic cells, immunofluorescence) ([4]; vs other groups and surrounding normal tissues): significantly higher
proliferation of tumor cells (Ki67-positive, immunohistochemistry) ([4]; vs other treatment groups): significantly lower
DNA mutations and carcinogenesis in cells or organisms ([5]; National Toxicology Program, 1239-45-8): no evidence that ethidium bromide can induce DNA mutations and carcinogenesis
genetic mutations in cells ([5]; long-term treatment, Mutation Research, 174(1986) 175-178): do not create genetic mutations
IC50 (MEF): 38.5 µM
viability of nude mice [6]: contributed to improve the viability of nude mice
inhibitory effect on subcutaneous solid tumors ([6]; start about 1 week after cell injection): very unsatisfactory
IC50 (normal cells): > 50 µM
deaths [7]: excessive deaths in nude mice
IC50 (tumor cells): < 10 µM
tumors in the lung tissues vs control [8]: significantly smaller than those in the control group
IC50 (RKO Colorectal cancer): 1.43 µM
